These results are taken from ChEMBL document CHEMBL3769362, “Thermodynamic profiling of inhibitors of Nrf2:Keap1 interactions” (Bioorg Med Chem Lett, 2016).

The source made the active and inactive calls. No cut-off for these calls is given here.

In assay [1] the target is T1, Keap1/Nrf2 (Homo sapiens) (UniProt Q16236+Q14145). In words: Inhibition of Nrf2:Keap1 interaction (unknown origin) assessed as induction of negative TdeltaS values by MR121 dye-labeled Nrf2-derived peptide based tracer displacement assay. It counts as protein assay.
The target in assay [2] is T1, Keap1/Nrf2 (Homo sapiens). Briefly: Inhibition of Nrf2:Keap1 interaction (unknown origin) assessed as thermodynamic enthalpy changes by MR121 dye-labeled Nrf2-derived peptide based tracer displacement assay. It is filed as protein assay.

T1 sequence (Q14145 whole entry, looked up): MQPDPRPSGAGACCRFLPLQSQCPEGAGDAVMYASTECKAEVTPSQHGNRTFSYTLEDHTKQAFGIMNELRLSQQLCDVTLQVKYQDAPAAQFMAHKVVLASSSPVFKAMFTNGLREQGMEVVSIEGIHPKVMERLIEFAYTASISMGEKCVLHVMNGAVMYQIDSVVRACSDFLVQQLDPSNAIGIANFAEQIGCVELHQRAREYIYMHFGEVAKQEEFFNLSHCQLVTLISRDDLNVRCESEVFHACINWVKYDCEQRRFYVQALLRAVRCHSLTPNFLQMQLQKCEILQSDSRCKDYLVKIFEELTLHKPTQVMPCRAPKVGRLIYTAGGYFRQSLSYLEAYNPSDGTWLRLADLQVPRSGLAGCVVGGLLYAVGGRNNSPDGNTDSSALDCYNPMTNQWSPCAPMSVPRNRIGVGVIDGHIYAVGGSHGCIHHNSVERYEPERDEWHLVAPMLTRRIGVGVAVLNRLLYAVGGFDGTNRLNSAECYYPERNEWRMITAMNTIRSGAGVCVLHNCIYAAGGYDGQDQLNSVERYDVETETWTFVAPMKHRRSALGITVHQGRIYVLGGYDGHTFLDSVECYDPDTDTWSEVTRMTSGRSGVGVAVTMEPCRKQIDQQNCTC
T1 sequence (Q16236 whole entry, looked up): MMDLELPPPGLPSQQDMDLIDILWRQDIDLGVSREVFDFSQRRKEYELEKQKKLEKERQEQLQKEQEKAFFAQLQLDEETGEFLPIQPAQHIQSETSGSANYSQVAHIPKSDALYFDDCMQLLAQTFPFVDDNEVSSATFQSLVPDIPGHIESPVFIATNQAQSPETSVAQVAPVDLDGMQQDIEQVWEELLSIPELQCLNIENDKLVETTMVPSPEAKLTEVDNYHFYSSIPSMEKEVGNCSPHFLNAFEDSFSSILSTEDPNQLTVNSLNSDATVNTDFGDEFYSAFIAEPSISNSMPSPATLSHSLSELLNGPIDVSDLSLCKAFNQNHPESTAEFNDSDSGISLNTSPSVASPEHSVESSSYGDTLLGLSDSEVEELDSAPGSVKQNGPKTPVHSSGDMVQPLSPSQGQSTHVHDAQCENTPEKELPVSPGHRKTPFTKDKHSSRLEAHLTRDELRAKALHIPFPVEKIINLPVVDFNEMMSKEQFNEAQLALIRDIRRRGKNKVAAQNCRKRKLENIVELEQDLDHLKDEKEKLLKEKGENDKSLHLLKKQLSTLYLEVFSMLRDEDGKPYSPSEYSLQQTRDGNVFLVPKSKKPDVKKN

Consider `Cc1ccc(S(=O)(=O)C2CN=C(SCC(=O)Nc3ccccc3C(F)(F)F)NC2=O)c(C)c1` (centres undefined), for which the outcome in assay [1] was Active. In assay [2], the deltaG was -24.8 kJ/mol.

In the case of `COc1ccc(S(=O)(=O)Nc2ccc(NS(=O)(=O)c3ccc(OC)cc3)c3ccccc23)cc1`, the result in assay [1] was Active. Also, the deltaG in assay [2] is -32.8 kJ/mol.
